Laboratory results taken from patent US8841259B2, “Compositions and methods for treating vascular permeability” (Joslin Diabetes Center, priority 2005, dated 2014).
Each block holds one molecule with its values, some of them ahead of it.

How the values were obtained:
[1] = test system: retinal vascular permeability (RVP) in rats; assay: Video fluorescein angiography of rat retina after intravitreal injection; assay type: in vivo
Procedure: (§1) To measure retinal vascular permeability, 265 male Sprague Dawley and 12 male Long-Evans rats (Taconic Farms, Germantown, N.Y.) with initial body weights of 250 g were used. Experiments were performed in accordance with guidelines from the Association for Research in Vision and Opthalmology and approval from the Animal Care and Use committee of the Joslin Diabetes Center. Video fluorescein angiography was performed using a scanning laser opthalmoscope (Rodenstock Instrument, Munich, Germany) (Horio et al., Diabetologia 47:113-123 (2004)). Vitreous fluorophotometry and administration of fluorescein-dextran was performed as described previously (Aiello et al., Diabetes 46:1473-1480 (1997)).
Carbonic anhydrase was not detected by either mass spectroscopy or western blot analysis in the vitreous of untreated Sprague Dawley rats.

[2] = test system: retinal vascular permeability (RVP) in rats; assay: Retinal vascular permeability by vitreous fluorophotometry after intravitreal injection; assay type: in vivo, rat; settings: for RVP (vitreous fluorescein intensity): CA-1 200 ng/eye, BSS control 7.4 au; for effect on CA-1 induced permeability: co-injection of serpin family proteins
Procedure: as §1
Intravitreal injection of CA-1 increased RVP, as measured by vitreous fluorophotometry, in a dose-dependent manner (FIG. 3A), with a maximal increase of 2.3 fold (p<0.05) at 2 μg. […] The effect of a single dose of CA-1 on RVP was sustained at 59% over control at 24 hours post injection (FIG. 3B).

[3] = test system: RVP in rat eyes injected with human vitreous; assay: Transplant of human vitreous into rat vitreous, RVP measurement; assay type: in vivo; settings: vitreous pretreated with 10 μM
Procedure: In these tests, 10 μl of human vitreous was injected into the rat vitreous compartment and the response on retinal vascular permeability was measured.

[4] = test system: retinal vascular permeability (RVP) in rats; assay: Retinal Evans blue permeability after intravitreal lysed RBC or CA-1; assay type: in vivo, rat
Procedure: To prepare lysed RBCs, 3 ml rat blood in 15 ml saline was centrifuged at 1,000 g for 10 minutes; the plasma and buffy coat were discarded. The RBCs were then washed in 12 ml saline. The packed cells were frozen in liquid nitrogen for 5 minutes and then allowed to thaw at room temperature. The lysed RBCs were centrifuged at 12,000 rpm for 30 minutes. The supernatant was used for experiment. […] Approximate 21 hours later, Evans blue was injected at a dosage of 30 mg/kg. After the dye had circulated for 3 hours the rats were perfused via the left ventricle with saline. The retina were harvested and Evans blue dye was extracted by incubation in 0.3 ml formamide for 20 hours at 60° C. The extract was centrifuged (14,000 rpm for 30 minutes). The absorbance of the filtrate was measured with a spectrophotometer at 620 nm. The concentration of dye in the extracts was calculated from a standard curve.

[5] = test system: retina of streptozotocin diabetic rats; assay: OCT imaging of retinal thickness in diabetic rats after intravitreal CA-1; assay type: in vivo, rat
Procedure: Rats had diabetes induced by intraperitoneal injection of streptozotocin (55 mg/kg) after overnight fast. Diabetes was confirmed after 24 hours with blood glucose greater than 250 mg/dl. After 2 weeks of diabetes, rats were injected intravitreally with CA-1 or BSS and the retinas imaged by OCT after 48 hours. Retinal ultrastructure was imaged and quantitatively measured using a high-speed, ultrahigh resolution OCT system with Fourier/spectral domain detection. Using a broadband superluminescent diode light source (Superlum Diodes Limited, Moscow, Russia) with a 155 nm bandwidth, a 2.6 μm axial resolution in tissue was achieved after digital spectral shaping. The imaging speed was 26,000 axial scans per second and the system sensitivity was 96 dB with an axial (depth) scan range of 1.3 mm in tissue. The OCT research instrument was designed for small animal retinal imaging and used a post-objective scanning microscope with a 10 μm transverse resolution. Corneal refraction was compensated with a coverslip and Goniosol (CIBA Vision Ophthalmics). Each data set consisted of 256 images with 512 axial scans per image, acquired in a raster pattern on the retina. Measurements of intraretinal layer thicknesses were performed on individual cross sectional OCT images.

[6] = test system: blood-brain barrier permeability in rats; assay: Blood-brain barrier permeability to Evans blue after subdural infusion; assay type: in vivo, rat
Procedure: Approximately 22 hours later, 0.7 ml Evans blue was injected through a jugular vein catheter. After the dye circulated for 120 minutes, the rats were perfused with 50 ml saline through the left ventricle at 110 mmHg pressure. After decapitation, the brain was weighed and Evan's blue was extracted by incubating each brain in 1 ml of formamide for 20 hours at 60° C. The extract was centrifuged (14,000 rpm for 30 minutes). The absorbance of the filtrate was measured with a spectrophotometer at 620 nm. The concentration of dye in the extracts was calculated from a standard curve of Evans blue in formamide, normalized to the brain weight, and expressed per gram of tissue.

[7] = intravitreal injection of 100 μM
[8] = diabetic rat, 48 hours after intravitreal injection, OCT

Molecule: CC(=O)Nc1nnc(S(N)(=O)=O)s1 [acetazolamide, reference compound]
effect on increase in RVP induced by CA-1 ([1]; co-injection 10 μM with CA-1): blocked
effect on basal RVP ([2]; 10 μM): no effect
inhibition at 10 µM ([2]; Rattus norvegicus, co-injection of 10 μM, p<0.05, read-out: inhibition of CA-1 induced RVP): 68%
effect on RVP in rat eyes injected with vitreous from noDR and NDM groups [3]: did not affect
RVP in rat eyes injected with vitreous from subjects with PDR ([3]; reduced from 13.67±5.23, P=0.017, n=5): 9.20±3.85
effect on increase in RVP by lysed RBC ([4]; pretreatment of lysed RBC with 10 μM, P<0.05): blocked

Molecule: CC(=O)N[C@@H](CC(C)C)C(=O)N[C@@H](CC(C)C)C(=O)N[C@H](C=O)CCCNC(=N)N [leupeptin, reference compound]
reduction of CA-1 stimulated RVP [2, 7]: 71%

EC50 as final concentration in vitreous ([2]; following dilution in 100 uL of rat vitreous): about 670 pg/μL
EC50 for increase of RVP ([2]; intravitreal injection): 67 ng
Molecule: CA-1: carbonic anhydrase-1, extracellular erythrocyte enzyme injected as vascular permeability factor
retinal vascular leakage (fluorescein and 2000 kDa fluorescein-dextran) ([1]; 48 hours after intravitreal injection): focal areas of retinal vascular leakage were observed
retinal fluorescein leakage ([1]; intravitreal 2 μg/ml, at 30 minutes, vs baseline or BSS): increased retinal fluorescein leakage
increase of RVP ([2]; 200 ng/eye (20 μg/ml) intravitreal, vs BSS, P<0.05): 2.4 fold
maximal increase of RVP ([2]; at 2 μg intravitreal, p<0.05): 2.3 fold
RVP (vitreous fluorescein intensity) ([2]; intravitreal injection): 17.4 au
RVP over control ([2]; single dose, 24 hours post injection): 59%
increase of ONL share of retinal thickness compared with BSS-treated diabetic rats ([5]; 48 hours): 17%
increase of ONL share of retinal thickness compared with nondiabetic rats ([5]; 48 hours): 18%
ONL share of overall retinal thickness ([5]; diabetic rat, 48 hours): 38%
increase in outer nuclear layer (ONL) thickness vs contralateral saline vehicle eye [5, 8]: 30%
increase in retina thickness vs contralateral saline vehicle eye [5, 8]: 12%
RVP compared with eyes that received BSS ([4]; intravitreal injection, Evans blue): 3.0 fold
Evan's blue leakage on posterior and anterior surfaces of the brain ([6]; subdural infusion, 24 hours): induced intense focal areas of Evan's blue leakage
increase of permeability in brain compared to BSS ([6]; subdural infusion, Evan's blue quantification, P<0.05): 2.3 fold

Molecule: Hoe 140 [reference compound]
reduction of CA-1 stimulated RVP ([2]; co-injection with CA-1): 67%

Molecule: VEGF
RVP (vitreous fluorescein intensity) ([2]; intravitreal injection): 14.5 au

Molecule: aprotinin [reference compound]
reduction of CA-1 stimulated RVP [2, 7]: 50%

B1: C1-INH: Complement-1 Inhibitor, inhibits the serum protease kallikrein (protein, UniProt P05155 23-500, looked up)
Plasma protease C1 inhibitor: NPNATSSSSQDPESLQDRGEGKVATTVISKMLFVEPILEVSSLPTTNSTTNSATKITANTTDEPTTQPTTEPTTQPTIQPTQPTTQLPTDSPTQPTTGSFCPGPVTLCSDLESHSTEAVLGDALVDFSLKLYHAFSAMKKVETNMAFSPFSIASLLTQVLLGAGENTKTNLESILSYPKDFTCVHQALKGFTTKGVTSVSQIFHSPDLAIRDTFVNASRTLYSSSPRVLSNNSDANLELINTWVAKNTNNKISRLLDSLPSDTRLVLLNAIYLSAKWKTTFDPKKTRMEPFHFKNSVIKVPMMNSKKYPVAHFIDQTLKAKVGQLQLSHNLSLVILVPQNLKHRLEDMEQALSPSVFKAIMEKLEMSKFQPTLLTLPRIKVTTSQDMLSIMEKLEFFDFSYDLNLCGLTEDPDLQVSAMQHQTVLELTETGVEAAAASAISVARTLLVFEVQQPFLFVLWDQQHKFPVFMGRVYDPRA
effect on VEGF-induced retinal fluorescein permeability ([2]; co-injection): did not affect
reduction of CA-1 stimulated RVP ([2]; co-injection with CA-1): 92%
effect on CA-1-induced cerebral vascular permeability ([6]; subdural, with CA-1): blocked

B2: angiotensinogen: serpin family protein (protein, UniProt P01019 25-476, looked up)
Angiotensinogen: DRVYIHPFHLVIHNESTCEQLAKANAGKPKDPTFIPAPIQAKTSPVDEKALQDQLVLVAAKLDTEDKLRAAMVGMLANFLGFRIYGMHSELWGVVHGATVLSPTAVFGTLASLYLGALDHTADRLQAILGVPWKDKNCTSRLDAHKVLSALQAVQGLLVAQGRADSQAQLLLSTVVGVFTAPGLHLKQPFVQGLALYTPVVLPRSLDFTELDVAAEKIDRFMQAVTGWKTGCSLMGASVDSTLAFNTYVHFQGKMKGFSLLAEPQEFWVDNSTSVSVPMLSGMGTFQHWSDIQDNFSVTQVPFTESACLLLIQPHYASDLDKVEGLTFQQNSLNWMKKLSPRTIHLTMPQLVLQGSYDLQDLLAQAELPAILHTELNLQKLSNDRIRVGEVLNSIFFELEADEREPTESTQQLNKPEVLEVTLNRPFLFAVYDQSATALHFLGRVANPLSTA
effect on CA-1 induced permeability [2]: did not block

B3: PEDF: pigment epithelium-derived factor, serpin family protein (protein, UniProt P36955 20-418, looked up)
Pigment epithelium-derived …: QNPASPPEEGSPDPDSTGALVEEEDPFFKVPVNKLAAAVSNFGYDLYRVRSSTSPTTNVLLSPLSVATALSALSLGAEQRTESIIHRALYYDLISSPDIHGTYKELLDTVTAPQKNLKSASRIVFEKKLRIKSSFVAPLEKSYGTRPRVLTGNPRLDLQEINNWVQAQMKGKLARSTKEIPDEISILLLGVAHFKGQWVTKFDSRKTSLEDFYLDEERTVRVPMMSDPKAVLRYGLDSDLSCKIAQLPLTGSMSIIFFLPLKVTQNLTLIEESLTSEFIHDIDRELKTVQAVLTVPKLKLSYEGEVTKSLQEMKLQSLFDSPDFSKITGKPIKLTQVEHRAGFEWNEDGAGTTPSPGLQPAHLTFPLDYHLNQPFIFVLRDTDTGALLFIGKILDPRGP
effect on CA-1 induced permeability [2]: did not block
